# Test results taken from patent US5639887A, “MDR reversal agents” (priority 1995, dated 1997).
# Tests used:
# [1] = test system: bisantrene-resistant human ovarian carcinoma cells S1-B1-20 (OVCAR-3 subclone); test: Screening assay for reversal agents: Difference Score with/without 20 μM bisantrene; assay type: cell-based; conditions: alone vs with 20 μM bisantrene, 3 days, difference in % cell survival
# Experimental: Such cells are sorted by a fluorescent activated cell sorter (FACS; Becton Dickinson Model 440).
# Cells, prepared by trypsinization, are plated at 20,000 cells/well in media with and without bisantrene. Then, test agents at varying concentrations are added to the cells. […] Completed plates are incubated for 3 days at 37° C. in a moisturized 7% CO2 atmosphere. […] Dye content/well is read at 540 nm in a microtiter reader. Values are electronically processed, % cell survival compared to untreated cells is computed, and the results are expressed as the difference between these values. Experiments are run in the presence of the test agent alone and the test agent in combination with 20 μM bisantrene. The Difference Score between those two experiments is reported below for 3 different concentrations of test agent.
# [2] = test system: vincristine resistant murine leukemia P388/VCR; test: In vivo evaluation of MDR-1 reversal agents against vincristine resistant murine leukemia P388/VCR implanted IP in CDF1 mice; conditions: for % ILS: vs vincristine alone
# Experimental: Tumor cell ascites are harvested 5-7 days later. For drug testing, groups of 10-15 CDF1 mice (DBA/2×Balb/cF1 hybrids; Charles River Laboratories, Inc) are injected IP with 0.5 ml of diluted ascitic fluid containing 1×10^6 viable P388/VCR tumor cells. […] Drugs are administered once daily, by the IP, intravenous (IV) or oral route, starting one day after tumor implantation and using a variety of treatment schedules. Mice are weighed periodically, survival is recorded for 30 days post tumor implantation, and Mean survival times are calculated for all groups of mice. Statistical analysis of Mean survival times is carried out using the Student t-test.
# [3] = test system: human epidermoid carcinoma KB/8.5; test: In vivo evaluation of MDR-1 reversal agents against human epidermoid carcinoma KB/8.5 implanted SC in athymic nude mice; parameters: species or system human (tumor in athymic nude mice)
# Experimental: The multiple drug resistant human epidermoid carcinoma KB/8.5 is propagated in medium containing colchicine (10 nanograms/ml) to maintain drug resistance. Colchicine is removed from the medium, for two cell passages, prior to subcutaneous (SC) implant of 8×10^6 KB/8.5 tumor cells into athymic "nude" mice (Harlan Sprague Dawley). […] Individual mouse tumor mass and mean tumor mass for each treatment group is determined on Day +14 and Day +21 of the test period. For each treatment group, the Relative Tumor Growth, RTG, is calculated as follows: [formula]
# Statistical analysis of Log Relative Tumor Growth is carried out using the Student t-test. Transformation of the data from absolute mean tumor mass (mgs tumor mass) to Log Relative Tumor Growth prior to statistical analysis has two beneficial effects:
# 1) it corrects the data for differences in mean tumor mass of the different treatment groups at the start of the test period (Day 0); and
# 2) the Log transformation of the data more adequately reflects the exponential growth pattern of the SC tumors and makes the use of the Student t-test more appropriate.
# [4] = vincristine 0.2 + compound 75 mg/kg, days 1-7, IP
# [5] = vincristine 0.2 + compound 100 mg/kg, days 1-7, ORAL
# [6] = vincristine 0.2 + compound 200 mg/kg, days 1-7, ORAL
# [7] = vincristine 0.4 + compound 25.0 mg/kg, days 1-3, IP
# [8] = vincristine 0.4 + compound 50.0 mg/kg, days 1-3, IP
# [9] = doxorubicin 8 mg/kg IV + compound 50 mg/kg/dose SC at -2 h and +2 h
# [10] = doxorubicin 8 mg/kg IV + compound 100 mg/kg/dose SC at -2 h and +2 h
# [11] = vincristine 0.2 + compound 6.3 mg/kg, days 1-7, IP
# [12] = doxorubicin 8 mg/kg IV + compound 75 mg/kg/dose SC at -2 h and +2 h
# [13] = doxorubicin 8 mg/kg IV + compound 200 mg/kg/dose SC at -2 h and +2 h
# [14] = vincristine 0.2 + compound 25 mg/kg, days 1-5, IP
# [15] = vincristine 0.2 + compound 50 mg/kg, days 1-5, IP
# [16] = vincristine 0.4 + compound 25 mg/kg, days 1-3,6,7, IV
# [17] = vincristine 0.4 + compound 50 mg/kg, days 1-3,6,7, IV
# [18] = vincristine 0.6 + compound 6.3 mg/kg, days 1,5,9, IP
# [19] = vincristine 0.6 + compound 25 mg/kg, days 1,2, IV
# [20] = vincristine 0.6 + compound 25 mg/kg, days 1,5,9, IP
# [21] = vincristine 0.6 + compound 50 mg/kg, days 1,2, IV
# [22] = vincristine 0.8 + compound 25 mg/kg, days 1,2, IV
# [23] = doxorubicin 8 mg/kg IV + compound 25 mg/kg/dose SC at -2 h and +2 h
# [24] = doxorubicin 8 mg/kg IV + compound 150 mg/kg/dose SC at -2 h and +2 h
# [25] = doxorubicin 8 mg/kg IV + compound […] SC at -2 h and +2 h
# [26] = vincristine 0.2 + compound 25 mg/kg, days 1-7, IP
# [27] = vincristine 0.2 + compound 50 mg/kg, days 1-7, IP
# [28] = doxorubicin 8 mg/kg IV + compound 200 mg/kg/dose SC x2
molecule,measurement,setting,value
"2-[6-Cyano-6(3,4-dimethoxyphenyl)-6-[(4-methylphenyl)-thio]hexyl]-1,2,3,4-tetrahydo-5-methoxy-7-isoquinoline trifluoromethanesulfonic acid [Example 102]",Difference Score at 1 microM,[1]; test agent 1 microM,30
same,Difference Score at 10 microM,[1]; test agent 10 microM,82
same,Difference Score at 20 microM,[1]; test agent 20 microM,82
"COc1ccc(C(C#N)(CCCN2CCc3cc(OC)c(OC)cc3C2)Sc2ccc(C)cc2)cc1OC (stereo not drawn) [Example 3, α-(3,4-Dimethoxyphenyl)-3,4-dihydro-6,7-dimethoxy-α-[(4-methylphenyl)thio]-2(1H)-isoquinolinepentanenitrile]",MST,[2]; [4],16.7 days
same,MST,[2]; [5],15.8 days
same,MST,[2]; [6],16.4 days
same,MST,[2]; [7],15.6 days
same,MST,[2]; [8],16.3 days
same,% ILS,[2]; [4],+21%
same,% ILS,[2]; [5],+15%
same,% ILS,[2]; [6],+20%
same,% ILS,[2]; [7],+10%
same,% ILS,[2]; [8],+15%
same,Relative Tumor Growth Day 21,[3]; [9],8.38
same,Relative Tumor Growth Day 21,[3]; [10],8.87
"COc1ccc(C(C#N)(CCCCCCCCCCCN2CCc3cc(OC)c(OC)cc3C2)Sc2ccc(C)cc2)cc1OC (stereo not drawn) [Example 14, α-(3,4-Dimethoxyphenyl)-3,4-dihydro-6,7-dimethoxy α-[(4-methylphenyl)thio]-2(1H)-isoquinoline tridecanenitrile]",MST,[2]; [11],14.3 days
same,% ILS,[2]; [11],+14%
same,Relative Tumor Growth Day 21,[3]; [12],5.86
same,Relative Tumor Growth Day 21,[3]; [13],7.84
"COc1ccc(C(C#N)(CCCCCN2CCc3cc(OC)c(OC)cc3C2)Sc2ccc(C)cc2)cc1OC (stereo not drawn) [Example 17, α-(3,4-Dimethoxyphenyl)-3,4-dihydro-6,7-dimethoxy-α-[(4-methylphenyl)thio]-2(1H)-isoquinolineheptanenitrile]",MST,[2]; [14],16.8 days
same,MST,[2]; [15],16.1 days
same,MST,[2]; [16],13.3 days
same,MST,[2]; [17],13.4 days
same,MST,[2]; [18],12.9 days
same,MST,[2]; [19],10.1 days
same,MST,[2]; [20],15.8 days
same,MST,[2]; [21],11.1 days
same,MST,[2]; [22],11.1 days
same,% ILS,[2]; [14],+22%
same,% ILS,[2]; [15],+17%
same,% ILS,[2]; [16],+17%
same,% ILS,[2]; [17],+18%
same,% ILS,[2]; [18],+12%
same,% ILS,[2]; [19],+5%
same,% ILS,[2]; [20],+38%
same,% ILS,[2]; [21],+16%
same,% ILS,[2]; [22],+13%
same,Relative Tumor Growth Day 21,[3]; [23],9.55
same,Relative Tumor Growth Day 21,[3]; [24],3.35
same,Relative Tumor Growth Day 21,[3]; [13],5.30
same,Relative Tumor Growth Day 21,[3]; [25],8.58
COc1ccc(C(C#N)(CCCCCN2CCc3cc4c(cc3C2)OCO4)Sc2ccc(C)cc2)cc1OC (stereo not drawn) [Example 21],MST,[2]; [26],14.5 days
same,% ILS,[2]; [26],+16%
COc1ccc2c(c1)CCN(CCCCCC(C#N)(Sc1ccc(C)cc1)c1ccc(OC)c(OC)c1)C2 (stereo not drawn) [Example 22],MST,[2]; [11],15.2 days
same,% ILS,[2]; [11],+20%
"COc1ccc(C(C#N)(CCCCCN2Cc3cc(OC)c(OC)cc3C2)Sc2ccc(C)cc2)cc1OC (stereo not drawn) [Example 26, α-(3,4-Dimethoxyphenyl)-1,3-dihydro-5,6-dimethoxy-α-[(4-methylphenyl)thio]-2H-isoindole-2-heptanenitrile]",MST,[2]; [11],13.8 days
same,MST,[2]; [26],15.8 days
same,% ILS,[2]; [11],+23%
same,% ILS,[2]; [26],+41%
same,Relative Tumor Growth Day 21,[3]; [12],3.49
same,Relative Tumor Growth Day 14,[3]; [24],Toxic
same,Relative Tumor Growth Day 21,[3]; [24],Toxic
same,Relative Tumor Growth Day 14,[3]; [13],Toxic
same,Relative Tumor Growth Day 21,[3]; [13],Toxic
"COc1ccc(C(C#N)(CCCCCN2CCc3cc(OC)c(OCCn4ccnc4)cc3C2)Sc2ccc(C)cc2)cc1OC (stereo not drawn) [Example 33, α-(3,4-Dimethoxyphenyl)-3,4-dihydro-7-[2-(1H-imidazol-1-yl)ethoxy]-6-methoxy-α-[(4-methylphenyl)thio]-2(1H)-isoquinolineheptanenitrile]",MST,[2]; [26],15.6 days
same,MST,[2]; [27],16.6 days
same,% ILS,[2]; [26],+39%
same,% ILS,[2]; [27],+48%
"COc1ccc(C(C#N)(CCCCCCN2CCc3cc(OC)c(OC)cc3C2)Sc2ccc(C)cc2)cc1OC (stereo not drawn) [Example 37, α-(3.4-Dimethoxyphenyl)-3,4-dihydro-6,7-dimethoxy-α-[(4-methylphenyl)thio]-2(1H)-isoqutnolineoctanenitrile]",MST,[2]; [26],14.7 days
same,% ILS,[2]; [26],+17%
"COc1ccc(C(CCCCCN2CCc3cc(OC)c(OC)cc3C2)Sc2ccc(C)cc2)cc1OC (stereo not drawn) [Example 41, 2-[6-(3,4-Dimethoxyphenvl]-6-[(4-methylphenyl)thio]-hexyl]-1,2,3,4-tetrahydro-6,7-dimethoxyisoquinoline]",MST,[2]; [11],14.1 days
same,% ILS,[2]; [11],+13%
same,Relative Tumor Growth Day 21,[3]; [23],6.15
same,Relative Tumor Growth Day 21,[3]; [12],8.54
same,Relative Tumor Growth Day 21,[3]; [13],4.57
same,"toxicity remark (tox), Day 14",[3]; [28],tox
same,"toxicity remark (tox), Day 21",[3]; [28],tox
same,Relative Tumor Growth Day 21,[3]; [25],7.27
"COc1ccc2c(c1)CCN(CCCCCC(Sc1ccc(C)cc1)c1ccc(OC)c(OC)c1)C2 (stereo not drawn) [Example 46, 2-[6-(3,4-Dimethoxyphenyl)-6-[(4-methylphenyl)thio]-hexyl]-1,2,3,4-tetrahydro-6-methoxyisoquinoline]",MST,[2]; [26],16.7 days
same,% ILS,[2]; [26],+36%
same,Relative Tumor Growth Day 21,[3]; [23],9.65
same,Relative Tumor Growth Day 21,[3]; [9],8.83
same,Relative Tumor Growth Day 21,[3]; [12],10.23
same,Relative Tumor Growth Day 21,[3]; [10],10.91
same,Relative Tumor Growth Day 21,[3]; [13],8.99
"COc1cc2c(cc1OC)CN(CCCCCCC(Sc1ccccc1)c1ccccc1)CC2 (stereo not drawn) [Example 112, 1,2,3,4-Tetrahydro-6,7-dimethoxy-2-[7-phenyl-7-(phenylthio]heptyl]isoquinoline]",MST,[2]; [26],16.3 days
same,MST,[2]; [27],14.2 days
same,% ILS,[2]; [26],+45%
same,% ILS,[2]; [27],+26%
"CC[C@]1(O)C[C@H]2CN(CCc3c([nH]c4ccccc34)[C@@](C(=O)OC)(c3cc4c(cc3OC)N(C=O)[C@H]3[C@@](O)(C(=O)OC)[C@H](OC(C)=O)[C@]5(CC)C=CCN6CC[C@]43[C@@H]65)C2)C1 [Vincristine, reference compound]",MST,"[2]; vincristine alone 0.6 mg/kg, days 1,2, IV",9.6 days
same,MST,"[2]; vincristine alone 0.8 mg/kg, days 1,2, IV",9.8 days
